Measurements reported in publication PMC8213057, “Targeting ALK2: An Open Science Approach to Developing Therapeutics for the Treatment of Diffuse Intrinsic Pontine Glioma” (Journal of Medicinal Chemistry, 2020).
Several values for one entry are separate records, joined by “and”; a condition that tells them apart may be missing. Equal values may be shown once.

Key:
CDK6/cyclin D3 = CDK6/cyclin D3 (Homo sapiens, UniProt Q00534); settings: 1 μM; Run 1, Run 2
SGK2 = SGK2 (Homo sapiens, UniProt Q9HBY8); settings: 1 μM; Run 1, Run 2
Sequence of SGK2 (Q9HBY8 whole entry): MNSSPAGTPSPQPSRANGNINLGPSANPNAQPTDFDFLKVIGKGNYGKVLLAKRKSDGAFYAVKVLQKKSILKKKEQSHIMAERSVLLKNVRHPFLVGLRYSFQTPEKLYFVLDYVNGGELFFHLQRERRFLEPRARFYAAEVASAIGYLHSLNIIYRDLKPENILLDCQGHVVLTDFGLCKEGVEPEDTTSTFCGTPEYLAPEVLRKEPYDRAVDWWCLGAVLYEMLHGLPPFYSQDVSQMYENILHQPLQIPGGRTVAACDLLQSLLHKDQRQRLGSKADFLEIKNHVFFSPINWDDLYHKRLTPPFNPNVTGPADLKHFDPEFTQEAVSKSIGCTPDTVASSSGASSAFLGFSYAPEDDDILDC

MAPKAPK5/PRAK = target: T1, MAPKAPK5/PRAK (Homo sapiens, UniProt Q8IW41); settings: 1 μM; Run 1, Run 2
T1 sequence (Q8IW41 1-473): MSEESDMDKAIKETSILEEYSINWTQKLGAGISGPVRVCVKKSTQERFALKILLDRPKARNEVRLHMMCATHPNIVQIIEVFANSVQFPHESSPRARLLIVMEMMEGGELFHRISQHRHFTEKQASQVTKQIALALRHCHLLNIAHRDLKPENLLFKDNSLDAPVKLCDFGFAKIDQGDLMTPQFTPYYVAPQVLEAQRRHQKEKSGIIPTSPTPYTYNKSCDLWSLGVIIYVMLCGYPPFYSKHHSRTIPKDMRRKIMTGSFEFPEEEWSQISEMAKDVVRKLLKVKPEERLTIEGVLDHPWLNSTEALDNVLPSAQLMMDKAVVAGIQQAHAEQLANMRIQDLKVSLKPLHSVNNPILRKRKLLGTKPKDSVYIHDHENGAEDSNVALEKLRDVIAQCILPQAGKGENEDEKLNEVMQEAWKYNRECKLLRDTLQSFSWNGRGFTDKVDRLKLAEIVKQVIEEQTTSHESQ

CK1g1 = CK1g1 (Homo sapiens, UniProt Q9HCP0); assay: biochemical; settings: read-out: % enzyme activity, 1 μM; Run 1, Run 2
Sequence of CK1g1 (Q9HCP0 whole entry): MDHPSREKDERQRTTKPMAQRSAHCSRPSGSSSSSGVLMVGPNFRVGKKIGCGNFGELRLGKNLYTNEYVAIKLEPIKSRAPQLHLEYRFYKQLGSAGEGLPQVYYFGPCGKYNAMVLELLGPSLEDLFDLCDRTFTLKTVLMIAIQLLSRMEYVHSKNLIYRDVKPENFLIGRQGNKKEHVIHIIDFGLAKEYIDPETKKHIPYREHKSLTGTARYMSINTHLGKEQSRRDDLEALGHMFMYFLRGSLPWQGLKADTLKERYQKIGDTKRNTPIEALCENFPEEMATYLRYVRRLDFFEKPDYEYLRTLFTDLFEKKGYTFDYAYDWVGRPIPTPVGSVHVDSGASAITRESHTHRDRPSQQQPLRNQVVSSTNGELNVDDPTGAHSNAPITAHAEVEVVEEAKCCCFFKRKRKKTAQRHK

FLT3 = target: T2, FLT3 (Homo sapiens, UniProt P36888); assay: 375-member kinase panel; assay type: biochemical; settings: Run 1, Run 2; for % enzyme activity: 1 μM; for remaining activity at 1 µM: read-out: % enzyme activity, 1 μM
T2 construct: purchased Reaction Biology Corporation
T2 sequence (P36888 27-993): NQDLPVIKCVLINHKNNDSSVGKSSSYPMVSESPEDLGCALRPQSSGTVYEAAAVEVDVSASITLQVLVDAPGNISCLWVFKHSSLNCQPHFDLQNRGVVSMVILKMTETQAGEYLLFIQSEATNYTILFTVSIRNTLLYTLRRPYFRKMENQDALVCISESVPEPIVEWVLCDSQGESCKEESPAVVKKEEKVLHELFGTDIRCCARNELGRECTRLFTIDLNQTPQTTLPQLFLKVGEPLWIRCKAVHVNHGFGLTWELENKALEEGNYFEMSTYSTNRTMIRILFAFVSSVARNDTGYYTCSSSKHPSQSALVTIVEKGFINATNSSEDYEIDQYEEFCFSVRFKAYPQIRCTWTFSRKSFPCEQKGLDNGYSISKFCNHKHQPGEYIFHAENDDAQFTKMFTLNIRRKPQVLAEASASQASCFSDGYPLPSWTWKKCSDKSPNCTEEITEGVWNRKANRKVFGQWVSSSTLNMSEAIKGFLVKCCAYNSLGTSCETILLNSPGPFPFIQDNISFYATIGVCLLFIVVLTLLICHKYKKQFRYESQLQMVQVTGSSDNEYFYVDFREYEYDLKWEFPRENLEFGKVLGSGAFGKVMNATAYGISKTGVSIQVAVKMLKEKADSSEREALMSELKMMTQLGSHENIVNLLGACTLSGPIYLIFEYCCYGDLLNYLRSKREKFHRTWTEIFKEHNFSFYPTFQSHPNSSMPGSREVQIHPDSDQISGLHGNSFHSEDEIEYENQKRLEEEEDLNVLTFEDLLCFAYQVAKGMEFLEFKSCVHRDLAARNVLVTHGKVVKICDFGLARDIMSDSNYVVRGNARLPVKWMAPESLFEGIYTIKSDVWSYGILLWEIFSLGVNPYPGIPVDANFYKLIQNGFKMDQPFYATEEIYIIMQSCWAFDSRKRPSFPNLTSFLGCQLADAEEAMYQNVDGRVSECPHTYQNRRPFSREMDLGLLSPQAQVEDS

EPHA2 = EPHA2 (Homo sapiens, UniProt P29317); assay: biochemical; settings: read-out: % enzyme activity, 1 μM; Run 1, Run 2
Sequence of EPHA2 (P29317 24-976): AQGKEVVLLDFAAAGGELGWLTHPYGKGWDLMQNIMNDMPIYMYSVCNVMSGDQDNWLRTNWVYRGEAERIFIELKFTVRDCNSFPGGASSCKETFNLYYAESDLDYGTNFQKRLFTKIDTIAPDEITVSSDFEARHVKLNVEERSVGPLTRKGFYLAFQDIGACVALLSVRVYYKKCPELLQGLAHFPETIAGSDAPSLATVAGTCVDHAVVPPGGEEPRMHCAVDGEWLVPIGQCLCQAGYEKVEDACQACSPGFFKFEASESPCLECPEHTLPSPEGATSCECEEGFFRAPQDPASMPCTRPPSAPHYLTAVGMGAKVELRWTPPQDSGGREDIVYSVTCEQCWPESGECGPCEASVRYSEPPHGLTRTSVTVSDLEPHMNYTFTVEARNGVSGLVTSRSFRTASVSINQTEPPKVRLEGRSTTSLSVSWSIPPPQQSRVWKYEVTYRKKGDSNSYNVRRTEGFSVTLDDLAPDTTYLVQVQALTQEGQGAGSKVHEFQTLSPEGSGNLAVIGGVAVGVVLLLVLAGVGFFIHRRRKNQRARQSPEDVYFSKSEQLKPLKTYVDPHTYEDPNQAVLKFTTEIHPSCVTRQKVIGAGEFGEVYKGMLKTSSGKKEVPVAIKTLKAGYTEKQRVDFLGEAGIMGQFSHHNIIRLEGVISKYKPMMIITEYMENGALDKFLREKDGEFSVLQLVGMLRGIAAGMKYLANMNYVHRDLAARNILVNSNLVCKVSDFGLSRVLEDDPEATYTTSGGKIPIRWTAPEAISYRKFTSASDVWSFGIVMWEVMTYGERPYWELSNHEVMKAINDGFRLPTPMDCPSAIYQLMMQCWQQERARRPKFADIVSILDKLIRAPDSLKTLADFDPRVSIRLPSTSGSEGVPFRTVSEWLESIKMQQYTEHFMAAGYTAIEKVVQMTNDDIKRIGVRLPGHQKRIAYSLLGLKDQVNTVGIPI

PLK2 = PLK2 (Homo sapiens, UniProt Q9NYY3); settings: 1 μM; Run 1, Run 2
Sequence of PLK2 (Q9NYY3 whole entry): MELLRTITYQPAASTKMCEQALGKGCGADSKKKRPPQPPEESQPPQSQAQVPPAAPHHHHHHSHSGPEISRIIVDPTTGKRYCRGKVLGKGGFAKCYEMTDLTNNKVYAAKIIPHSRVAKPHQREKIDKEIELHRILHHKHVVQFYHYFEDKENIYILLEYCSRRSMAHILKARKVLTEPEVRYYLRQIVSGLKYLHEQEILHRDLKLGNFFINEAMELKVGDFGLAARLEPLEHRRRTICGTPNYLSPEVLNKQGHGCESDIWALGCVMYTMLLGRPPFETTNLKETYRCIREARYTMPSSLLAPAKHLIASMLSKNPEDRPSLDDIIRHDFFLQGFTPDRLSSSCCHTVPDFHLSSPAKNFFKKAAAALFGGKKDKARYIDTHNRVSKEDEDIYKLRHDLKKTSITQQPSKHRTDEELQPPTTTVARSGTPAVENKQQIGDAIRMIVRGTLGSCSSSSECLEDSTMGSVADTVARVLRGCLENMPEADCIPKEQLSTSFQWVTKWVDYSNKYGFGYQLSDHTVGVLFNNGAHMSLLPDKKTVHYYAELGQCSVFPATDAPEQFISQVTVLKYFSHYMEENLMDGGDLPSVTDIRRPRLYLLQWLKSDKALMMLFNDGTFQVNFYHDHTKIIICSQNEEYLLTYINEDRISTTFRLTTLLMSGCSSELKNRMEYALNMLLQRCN

PKG2/PRKG2 = target: T3, PKG2/PRKG2 (Homo sapiens, UniProt Q13237); settings: 1 μM; Run 1, Run 2
T3 sequence (Q13237 1-762): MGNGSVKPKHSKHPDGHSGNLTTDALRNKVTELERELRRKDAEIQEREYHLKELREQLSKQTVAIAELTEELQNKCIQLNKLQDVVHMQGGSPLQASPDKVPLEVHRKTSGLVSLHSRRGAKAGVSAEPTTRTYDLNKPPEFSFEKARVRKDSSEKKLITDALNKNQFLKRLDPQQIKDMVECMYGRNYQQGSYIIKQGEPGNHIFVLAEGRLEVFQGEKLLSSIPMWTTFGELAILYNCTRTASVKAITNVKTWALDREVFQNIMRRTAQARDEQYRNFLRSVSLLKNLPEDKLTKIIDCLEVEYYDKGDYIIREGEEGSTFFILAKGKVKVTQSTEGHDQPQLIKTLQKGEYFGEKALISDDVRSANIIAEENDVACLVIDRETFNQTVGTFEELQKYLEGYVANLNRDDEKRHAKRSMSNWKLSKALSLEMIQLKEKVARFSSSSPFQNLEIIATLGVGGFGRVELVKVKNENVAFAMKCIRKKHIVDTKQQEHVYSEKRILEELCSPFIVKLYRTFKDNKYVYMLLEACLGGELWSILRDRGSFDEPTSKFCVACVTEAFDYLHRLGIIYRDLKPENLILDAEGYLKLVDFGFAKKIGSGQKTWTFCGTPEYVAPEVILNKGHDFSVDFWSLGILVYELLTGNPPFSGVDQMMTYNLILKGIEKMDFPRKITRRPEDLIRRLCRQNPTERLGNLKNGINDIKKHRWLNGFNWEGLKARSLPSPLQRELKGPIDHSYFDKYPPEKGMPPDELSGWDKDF

P38g = target: T4, P38g (Homo sapiens, UniProt P53778); settings: 1 μM; Run 1, Run 2
T4 sequence (P53778 1-367): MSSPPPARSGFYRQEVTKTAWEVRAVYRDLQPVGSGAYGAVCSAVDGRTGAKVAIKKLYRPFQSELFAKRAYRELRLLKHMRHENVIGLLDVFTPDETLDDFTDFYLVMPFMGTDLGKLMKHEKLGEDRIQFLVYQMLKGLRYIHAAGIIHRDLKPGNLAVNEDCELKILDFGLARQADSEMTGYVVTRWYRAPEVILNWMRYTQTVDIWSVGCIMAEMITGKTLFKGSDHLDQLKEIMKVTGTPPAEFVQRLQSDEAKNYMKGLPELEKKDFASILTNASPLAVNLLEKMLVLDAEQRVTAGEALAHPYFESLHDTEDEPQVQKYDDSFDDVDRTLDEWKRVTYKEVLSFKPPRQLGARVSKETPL

Sequence of CDK6/cyclin D3 (Q00534 whole entry): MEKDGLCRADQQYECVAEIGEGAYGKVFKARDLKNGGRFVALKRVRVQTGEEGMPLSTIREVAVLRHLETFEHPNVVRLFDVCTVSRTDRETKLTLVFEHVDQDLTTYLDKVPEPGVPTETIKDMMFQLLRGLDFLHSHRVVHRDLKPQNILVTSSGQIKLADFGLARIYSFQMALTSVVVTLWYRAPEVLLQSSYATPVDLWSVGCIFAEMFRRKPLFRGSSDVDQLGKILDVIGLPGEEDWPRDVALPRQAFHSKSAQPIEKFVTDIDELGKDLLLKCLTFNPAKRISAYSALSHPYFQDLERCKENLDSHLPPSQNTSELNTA
Sequence of CDK6/cyclin D3 (P30281 whole entry partner): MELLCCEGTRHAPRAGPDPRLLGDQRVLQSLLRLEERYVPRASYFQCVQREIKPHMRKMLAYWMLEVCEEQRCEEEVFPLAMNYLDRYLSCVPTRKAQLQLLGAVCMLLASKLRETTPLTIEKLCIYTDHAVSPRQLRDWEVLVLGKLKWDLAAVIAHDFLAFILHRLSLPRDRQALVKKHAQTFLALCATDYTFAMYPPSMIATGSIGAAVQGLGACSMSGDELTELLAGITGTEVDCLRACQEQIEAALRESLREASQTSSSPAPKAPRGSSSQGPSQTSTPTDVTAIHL

Row | Structure (SMILES) | % enzyme activity at 1 μM (ALK6/BMPR1B) | % enzyme activity (CDK6/cyclin D3) [%] | % enzyme activity (SGK2) [%] | % enzyme activity (MAPKAPK5/PRAK) [%] | remaining activity at 1 µM (CK1g1) [%] | % enzyme activity (FLT3) [%] | remaining activity at 1 µM (FLT3) [%] | remaining activity at 1 µM (EPHA2) [%] | % enzyme activity (PLK2) [%] | % enzyme activity (PKG2/PRKG2) [%] | % enzyme activity (P38g) [%]
1 | COc1cc(-c2cncc(-c3ccc(N4C[C@@H](C)N(C)[C@@H](C)C4)cc3)c2C)cc(F)c1C(N)=O [Compound 26c, 2-Fluoro-6-methoxy-4-(4-methyl-5-(4-((3R,5S)-3,4,5-trimethylpiperazin-1-yl)phenyl)pyridin-3-yl)benzamide] | 30.2% and 30.1% | 102.19 | 100.91 | 94.46 | 71.7 | 81.48 | 84.3 | 108 | 102.38 | 97.08 | 105.83
2 | COc1cc(-c2cncc(-c3ccc(N4CCN(C)CC4)cc3)c2C)cc(F)c1C(N)=O [Compound 26a, 2-Fluoro-6-methoxy-4-(4-methyl-5-(4-(4-methylpiperazin-1-yl)phenyl)pyridin-3-yl)benzamide] | 18.2% and 17% | 86.25 | 100.43 | 90.60 | 57.7 | 76.15 | 77.1 | 103 | 97.24 | 97.48 | 107.36
